Experimental data: patent publication US4122184A, “Benzimidazole insecticides” (priority 1977, dated 1978)
Where two headings read alike, the source gives them in different places.

Legend:
oriental roaches = conditions: 250 ppm; cited from earlier work
boll weevils = conditions: 250 ppm; cited from earlier work
Southern armyworm larvae = conditions: 250 ppm; cited from earlier work
milkweed bugs = conditions: 250 ppm; cited from earlier work
house flies = conditions: cited from earlier work
[1] = tested on: Southern Corn Rootworm Adults; assay: Field trial, stomach poison test; type: in vivo
In short: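 Treated foliage (dipped, or sprayed at 10 psi, then dried) is offered to counted insects in dishes. Scoring of mortality uses a 0–9 scale at three time points up to 72 h.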

Picnic Beetle = assay: Field trial (first summer), topical; type: in vivo; conditions: .078125 μg/μl
Method: (§1) In a variation of the above test, 1 microliter of a test solution containing a predetermined number of micrograms of benzimidazole was applied directly to larvae or adult insects.
(§2) During the previous summer similar field trials were conducted employing the same tests as heretofore but with some additional species of insects not included in the later tests. The results listed below are for tests in which an insect mortality was established by a given application route and at a given concentration in a particular test. The same 0 - 9 scoring system is used as is the designation of compounds by alphabetical symbols.

Confused Flour Beetle = assay: Field trial (first summer), topical; type: in vivo
Method: as §1, §2

Boll Weevil [2] = assay: Field trial (first summer), topical; type: in vivo, Anthonomus grandis; conditions: .078125 μg/μl
Method: as §1, §2

[3] = tested on: Southern Corn Rootworm Adults; assay: Field trial, contact poison test; type: in vivo
In short: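 Contact spray, atomizer 10 psi, arm's length, several concentrations; infested plants in water bottles, stems wrapped in cellucotton, plants spaced apart. Scored 24, 48, 72 h; scale 0–9 by percent mortality.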

[4] = Solubility of sodium salt; type: physicochemical
House Fly = assay: Housefly (Contact) Test; type: in vivo, Musca domestica (Diptera); conditions: 50 ppm, 24 h
Method: Rearing cages containing four-day old adult house flies are chilled at 35°-40° F. for about 1 hour. One hundred flies are transferred from the rearing cage to each test cage using a small scoop. The caged flies are kept for 1-2 hours at 70°-80° F. The cages are sprayed in the same manner as described for the milkweed bug with 5 ml. of the test formulation. Two unsprayed cages are held as controls and two cages are sprayed with a 50 ppm DDT formulation as a reference standard. Mortality counts are made 24 hours after spraying. […] The same rating scale is employed as heretofore.

Boll Weevil [5] = assay: Boll Weevil Test; type: in vivo, Anthonomus grandis (Coleoptera); conditions: 48 h
Text: The procedure is identical to that employed for the Mexican bean beetle and the Southern armyworm, except that 10 adult boll weevils are placed on cotton leaves that have been dipped into formulations of the test compounds. The same rating scale is used.

Two-spotted Spider Mite = Two-spotted Spider Mite test; type: in vivo, Tetranychus urticae (Acarina); conditions: 25 ppm, 48 h
Method: The procedure in this test is the same as that in the previous aphid test, except that about 100 two-spotted spider mites from a stock colony raised on squash plants are transferred to a cut squash cotyledon. The mortality is estimated 48 hours after spraying. The same rating scale is used.

Oriental Cockroach = assay: Oriental Roach Test; type: in vivo, Blatta orientalis (Orthoptera); conditions: 24 h
Method: A rearing pan of late instar (3-4 months old) roaches is placed in a cold room for about 1 hour. Ten nymphs are taken from the pan and placed in each cage and the caged insects are kept at 70°-80° F. for 1 hour. The test cages are then sprayed in the manner indicated above in the milkweed bug test using 5 ml. of a formulation containing a specified amount of the insecticide. The test cages are held for 72 hours during which time the cockroaches are neither fed nor watered. Controls consist of 2 unsprayed cages, two cages sprayed with the formulation alone and 2 cages with a formulation containing 1000 ppm of heptachlor. Mortality counts are made 24 hours after spraying by shaking the cages lightly. All cockroaches remaining in the bottom are counted as dead.

Buffalo Tree Hopper = assay: Field trial (first summer), contact; type: in vivo; conditions: 125 ppm
Text: (§3) Infested plants are placed in 6 oz. prescription bottles filled with water to keep them from wilting. Cellucotton is wrapped around the plant stem and squeezed into the bottle neck to prevent the insects from drowning.
(§4) A DeVilbiss Special Atomizer (5004) is used at 10 psi to spray the test plant with different concentrations of compounds. The atomizer is held at arm's length to prevent blowing the insects off the host plant. After treating, the bottles are placed on a table covered with brown wrapping paper to catch the dead insects as they drop from the plant. The plants are spaced so the leaves or plants are not touching one another.
(§5) The results are read at 24, 48, and 72 hours when applicable. The rating scale is 0 to 9 where 0 = 0-10 percent and 9 = 91-100 percent mortality.
as §2

Differential Grasshopper = assay: Field trial (first summer), contact; type: in vivo; conditions: 125 ppm
Text: as §3, §4, §5, §2

Meadow Grasshopper = assay: Field trial (first summer), contact; type: in vivo; conditions: 125 ppm
Text: as §3, §4, §5, §2

Mexican Bean Beetle = assay: Field trial (first summer), topical; type: in vivo, Epilachna varivestis; conditions: .25 μg/μl
Method: as §1, §2

Yellow Mealworm Larvae = assay: Field trial, topical application; type: in vivo; parameters: key: 0 = 0-10% mortality, 9 = 91-100% mortality (0-9 scale)
In short: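 1 μL benzimidazole solution of set microgram content applied topically to larvae or adults. Mortality read at 24, 48 and 72 h where applicable, rated 0-9 (0 = 0-10%, 9 = 91-100%); values are average mortality per concentration.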

Structure (SMILES): FC(F)(F)c1nc2ccc(Cl)c(Cl)c2[nH]1 [2-trifluoromethyl-4,5-dichlorobenzimidazole]
- insecticidal activity (oriental roaches): without action
- insecticidal activity (boll weevils): without action
- insecticidal activity (Southern armyworm larvae): complete kill
- insecticidal activity (milkweed bugs): without action
- insecticidal activity (house flies; 1000 ppm): excellent only at 1000 ppm

Structure (SMILES): FC(F)(F)c1nc2cc(Cl)c(Cl)cc2[nH]1 [2-trifluoromethyl-5,6-dichlorobenzimidazole]
- insecticidal activity (oriental roaches): no activity
- insecticidal activity (boll weevils): no activity
- insecticidal activity (Southern armyworm larvae): same excellent activity
- insecticidal activity (milkweed bugs): no activity
- insecticidal activity (house flies; 250 ppm): no activity

Structure (SMILES): O=[N+]([O-])c1cc(C(F)(F)F)cc2nc(C(F)(F)F)[nH]c12.[Na] [B, 2,6-bis(trifluoromethyl)-4-nitrobenzimidazole, sodium salt]
- average mortality rating ([1]; 25 ppm): 4
- average mortality rating ([1]; 50 ppm): 5
- average mortality rating ([1]; 100 ppm): 9 (91-100 percent mortality)
- insect mortality rating (Picnic Beetle): 9 (91-100 percent mortality)
- insect mortality rating (Confused Flour Beetle; .3125 μg/μl): 9 (91-100 percent mortality)
- insect mortality rating (Boll Weevil [2]): 9 (91-100 percent mortality)
- average mortality rating ([3]; 25 ppm): 0 (0-10 percent)
- average mortality rating ([3]; 50 ppm): 3
- average mortality rating ([3]; 100 ppm): 8
- solubility in acid ([4]; acid): insoluble in acid
- solubility in water ([4]; water): water soluble
- mortality rating (House Fly): 8.5
- mortality rating (Boll Weevil [5]; 25 ppm): 8.5
- mortality rating (Boll Weevil [5]; 250 ppm): 8.5
- mortality rating (Two-spotted Spider Mite): 8.5
- mortality rating (Oriental Cockroach; 25 ppm): .5
- mortality rating (Oriental Cockroach; 100 ppm): 3.5

Structure (SMILES): C=CCOC(=O)n1c(C(F)(F)F)nc2c([N+](=O)[O-])cc(C(F)(F)F)cc21 [K, allyl 2,6-bis(trifluoromethyl)-4-nitro-1-benzimidazolecarboxylate]
- insect mortality rating (Picnic Beetle): 9 (91-100 percent mortality)
- insect mortality rating (Confused Flour Beetle; .078125 μg/μl): 9 (91-100 percent mortality)
- insect mortality rating (Boll Weevil [2]): 9 (91-100 percent mortality)
- insect mortality rating (Buffalo Tree Hopper): 9 (91-100 percent mortality)
- insect mortality rating (Differential Grasshopper): 9 (91-100 percent mortality)
- insect mortality rating (Meadow Grasshopper): 9 (91-100 percent mortality)
- insect mortality rating (Mexican Bean Beetle): 9 (91-100 percent mortality)
- average mortality rating (Yellow Mealworm Larvae; 0.03 μg/μl): 1
- average mortality rating (Yellow Mealworm Larvae; 0.07 μg/μl): 3
- average mortality rating (Yellow Mealworm Larvae; 0.15 μg/μl): 6
